In US12521356B2, “Compositions and methods for treating pain, inflammation, infection, malaria, and sepsis” (Duke University, priority 2018, dated 2026):

Experiments:
GPR37 = target: T1, GPR37 (Homo sapiens, UniProt O15354); assay: Ca2+ imaging (Fura-2AM) in HEK293 cells transfected with human GPR37 cDNA; assay type: cell-based; conditions: GPR37-expressing HEK293 cells; for intracellular Ca2+ (iCa2+) increase: 3 min
T1 construct: host or cells: HEK293 flip-in cells
T1 sequence (O15354 27-613): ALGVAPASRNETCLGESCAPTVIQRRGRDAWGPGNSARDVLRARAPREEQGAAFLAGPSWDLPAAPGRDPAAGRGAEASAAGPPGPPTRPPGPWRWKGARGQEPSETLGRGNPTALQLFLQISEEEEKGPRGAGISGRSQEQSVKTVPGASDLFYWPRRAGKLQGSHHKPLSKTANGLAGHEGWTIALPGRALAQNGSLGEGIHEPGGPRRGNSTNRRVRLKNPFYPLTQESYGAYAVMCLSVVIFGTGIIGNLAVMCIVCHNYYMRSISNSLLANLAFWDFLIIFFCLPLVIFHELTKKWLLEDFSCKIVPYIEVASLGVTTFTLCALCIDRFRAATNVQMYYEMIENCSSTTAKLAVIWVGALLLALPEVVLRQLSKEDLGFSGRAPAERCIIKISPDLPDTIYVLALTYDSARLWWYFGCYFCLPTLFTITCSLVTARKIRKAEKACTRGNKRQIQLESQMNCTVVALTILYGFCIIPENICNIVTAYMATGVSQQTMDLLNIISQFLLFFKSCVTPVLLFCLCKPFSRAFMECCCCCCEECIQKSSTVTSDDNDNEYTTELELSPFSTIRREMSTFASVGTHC
Procedure: HEK cell culture and transfection. HEK293 flip-in cell line was purchased from Duke Cell Culture Facility. Cells were cultured in high glucose (4.5 g/L) Dulbecco's Modified Eagle's Medium containing 10% (v/v) fetal bovine serum (Gibco). Transfection (2 μg cDNA) was performed with Lonza electroporation (Lonza) at 70% confluency and the transfected cells were cultured in the same growth medium for 48 h before use. The hGPR37-V5 pLenti304 plasmids were obtained from DNASU (Tempe, AZ), and hGPR32, hChemR23 and hALX pcDNA3 plasmids were provided by Dr. Serhan from Harvard Medical School, Boston.
Calcium imaging. HEK 293 cells, with or without transfection of Gpr37, GPR32, ChemR23 or ALX1 cDNA, were loaded with 5 μM Fura-2AM (Invitrogen) for 1 hour and then were resuspended in normal external buffer (140 NaCl, 5 KCl, 2 CaCl2, 2 MgCl2, 10 HEPES, in mM, titrated to pH 7.4 with NaOH) or external Ca^2+-free buffer (140 NaCl, 2 MgCl2, 5 EGTA, 10 HEPES, in mM, titrated to pH 7.4 with NaOH). Peritoneal macrophages, collected from WT and Gpr37 KO mice, were loaded with 5 μM […] (Invitrogen) for 1 hour and then were resuspended in normal external buffer. Images of the HEK 293 cells and macrophages with the excitation wavelength of 340 nm and 380 nm were captured with a cooled Digital CMOS camera (ORCA-Flash 4.0, Hamamatsu Photonics K.K, Japan). The ratio of fluorescence intensity of the two wavelengths in each experiment was analyzed using MetaFluor (Molecular Devices). The Shutter speed and wavelength was controlled by Lambda DG-4 system (Sutter instrument Co., Novato, CA). Values from each of the experiments were normalized to the baseline ratio of 340/380 nm.
In order to investigate how GPR37 regulates intracellular signaling, we conducted Ca^2+ imaging in HEK293 cells that overexpress GPR37. […] Thus, we hypothesized TX14 and SPM may activate the same receptors and elicit similar intracellular responses. We transfected HEK293 cells with human GPR37 cDNA, loaded these cells with Ca^2+ dye Fura-2AM, and stimulated them with TX14 and various SPMs, using ionomycin (2 μM) as a positive control for Ca^2+ influx (FIG. 2A, FIG. 2B, FIG. 2C).

[1] = test system: peritoneal macrophages (pMΦ); assay: Phagocytosis assay with fluorescence-labeled zymosan particles in peritoneal macrophages; assay type: cell-based, mouse; conditions: for MΦ phagocytosis: pMΦ
Procedure: Peritoneal macrophage culture. Peritoneal macrophages were collected by peritoneal lavage with 10 ml warm PBS containing of 1 mM EDTA. Cells were incubated in DMEM supplemented with 10% FBS at 37° C. for 2 h in petri dish and washed with PBS to eliminate non-adherent cells. The adherent cells were used as peritoneal macrophages. Peritoneal macrophages were used after 3 days of culture.
Phagocytosis assay. The phagocytosis assay was modified from a previously described protocol (Sommer C, and Kress M. NeurosciLett. 2004, 361, 184-187). pHrodo® Red Zymosan Bioparticles (diameter, 3 μm, Thermo scientific, Catalog: P35364) were rinsed and reconstituted in RPMI medium. Particles were centrifuged (1 min at 100 g) onto adherent peritoneal macrophages at a ratio of 10:1 to synchronize binding and internalization. After 30 min incubation at 37° C., non-adherent beads were removed with cold PBS and cells were fixed with 2% formalin. Four optic fields were photographed with epifluorescence microscopy. Quantification of zymosan particles ingested by MΦ was conducted on at least 200 macrophages/condition/well, and triplicates were included for statistical analysis.
We investigated whether iCa^2+ increases would trigger phagocytosis of pathogens such as zymosan by macrophages. Zymosan is a well-studied pathogen and activates TLR2 to trigger inflammation and inflammatory pain in rodents after intraplantar injection. We tested phagocytosis in pMΦ using fluorescence-labeled zymosan particles.

CC[C@@H](O)/C=C/C=C\C[C@@H](O)/C=C/C=C/C=C\[C@@H](O)CCCC(=O)O [RvE1]
intracellular Ca2+ (iCa2+) increase (GPR37; 100 nM): failed to increase iCa^2+ | MΦ phagocytosis [1]: induced

CC/C=C\C[C@H](O)/C=C/C=C\C=C\C=C\[C@@H](O)[C@@H](O)C/C=C\CCC(=O)O [RvD1]
intracellular Ca2+ (iCa2+) increase (GPR37; 100 nM): failed to increase iCa^2+ | MΦ phagocytosis [1]: induced

CC/C=C\C[C@H](O)\C=C/C=C/C=C/[C@H](O)C/C=C\C/C=C\CCC(=O)O [NPD1, neuroprotectin D1]
intracellular Ca2+ (iCa2+) increase (GPR37; 30 nM): elicited significant increases | EC50 (GPR37; dose response, read-out: EC50 of iCa2+ increase): 26 nM | NPD1-evoked increases in phagocytic activity ([1]; Gpr37-deficient MΦ): abolished | percentage of pMΦ showing the phagocytosis of zymosan particles ([1]; wild-type pMΦ): increased | phagocytic activity (zymosan particles in pMΦ) ([1]; wild-type pMΦ, 30 nM for 30 min): dose-dependent increase in phagocytic activity
